# According to US20110028455A1, “Indole-substituted 3-cyanopyridines As Kinase Inhibitors” (Wyeth LLC, priority 2007, published 2011):
# Experiments:
# [1] = Metabolic stability in rat liver microsomes; type: in vitro ADME; conditions: 30 minutes incubation, remaining compound by HPLC, 6-Me compounds of the invention, read-out: Rat Microsome Stability of 6-Me cyanopyridine Compounds (approximate half life)
# Description: In order to probe the metabolic stability of the compounds of the invention, a series of compounds were selected for stability testing in rat liver microsomes. A DMSO solution of each compound was incubated for 30 minutes in the presence of rat liver homogenate. The percentage of remaining compound was assessed by HPLC. An approximate half life was calculated from the percentage of remaining compound. Table II, below, illustrates a comparison of the in vitro microsomal half life of the selected compounds verses a series of related compounds lacking the C-6 alkyl group. […] It is generally accepted in the industry that improved in vitro metabolic stability frequently translates into improved in vivo metabolic stability. Improved metabolic stability may translate to increased in vivo exposure levels.
# [2] = molecular target: T1, human PKCθ full length enzyme (Homo sapiens, UniProt Q04759); assay: PKCθ IMAP Assay; type: biochemical; conditions: PKCθ 1 nM; ATP 6 μM; peptide 100 nM; DMSO 5%; 25 minutes at room temperature; FP readout; read-out: PKC-Theta Mean IC50
# T1 construct: human PKCθ full length enzyme (Panvera Cat# P2996); purchased Panvera P2996
# T1 sequence (Q04759 whole entry): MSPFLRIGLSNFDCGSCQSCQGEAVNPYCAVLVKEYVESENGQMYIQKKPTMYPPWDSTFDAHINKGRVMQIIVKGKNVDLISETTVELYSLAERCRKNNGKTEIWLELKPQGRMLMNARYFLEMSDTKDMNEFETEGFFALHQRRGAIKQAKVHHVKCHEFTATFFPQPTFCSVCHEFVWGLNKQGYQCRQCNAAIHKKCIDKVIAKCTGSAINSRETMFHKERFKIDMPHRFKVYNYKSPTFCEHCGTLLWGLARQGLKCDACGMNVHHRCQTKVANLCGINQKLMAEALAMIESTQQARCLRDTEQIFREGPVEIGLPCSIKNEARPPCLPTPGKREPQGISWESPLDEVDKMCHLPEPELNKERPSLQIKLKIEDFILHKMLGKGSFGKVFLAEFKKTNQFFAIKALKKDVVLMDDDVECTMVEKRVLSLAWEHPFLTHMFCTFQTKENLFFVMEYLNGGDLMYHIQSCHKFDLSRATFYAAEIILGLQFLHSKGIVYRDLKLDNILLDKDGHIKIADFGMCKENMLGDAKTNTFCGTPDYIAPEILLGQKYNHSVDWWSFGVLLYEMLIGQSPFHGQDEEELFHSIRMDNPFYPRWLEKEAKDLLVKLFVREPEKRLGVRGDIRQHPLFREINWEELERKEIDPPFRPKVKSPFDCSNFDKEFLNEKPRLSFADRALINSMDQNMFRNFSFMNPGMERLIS
# Description: The materials used include the following: human PKCθ full length enzyme (Panvera Cat# P2996); substrate peptide: 5FAM-RFARKGSLRQKNV-OH (Molecular Devices, RP7032); ATP (Sigma Cat # A2383); DTT (Pierce, 20291); 5× kinase reaction buffer (Molecular Devices, R7209); 5× binding buffer A (Molecular Devices, R7282), 5× binding buffer B (Molecular Devices, R7209); IMAP Beads (Molecular Devices, R7284); and 384-well plates (Corning Costar, 3710).
# The reaction buffer was prepared by diluting the 5× stock reaction buffer and adding DTT to obtain a concentration of 3.0 mM. The binding buffer was prepared by diluting the 5× binding buffer A. A master mix solution was prepared using a 90% dilution of the reaction buffer containing 2×ATP (12 uM) and 2× peptide (200 nm). Compounds were diluted in DMSO to 20× of the maximum concentration for the IC50 measurement. 27 μl of the master mix solution for each IC50 curve was added to the first column in a 384-well plate and 3 μl of 20× compound in DMSO was added to each well.
# The final concentration of compound was 2× and 10% DMSO. DMSO was added to the rest of the master mix to increase the concentration to 10%. 10 μl of the master mix containing 10% DMSO was added to the rest of the wells on the plate except the 2nd column. 20 μl was transferred from the first column to the 2nd column. The compounds were serially diluted in 2:1 ratio starting from the 2nd column. A 2×(2 nM) PKCθ solution was made in the reaction buffer. 10 μl of the PKCθ solution was added to every well to achieve these final concentrations: PKCθ-1 nM; ATP-6 μM; peptide-100 nM; DMSO-5%. Samples were incubated for 25 minutes at room temperature. The binding reagent was prepared by diluting the beads in 1× binding buffer to 800:1. 50 μl of the binding reagent was added to every well and incubated for 20 minutes. FP was measured using Envision2100 (PerkinElmer Life Sciences). Wells with no ATP and wells with no enzyme were used as controls.
half-life [1] [min],melting point [°C],IC50 [2] [nM],Structure (SMILES)
> 30,183 to 184,31,"Cc1ncc(C#N)c(Nc2ccc3[nH]ccc3c2C)c1-c1ccc(OCCN2CCN(C)CC2)cc1 [Example 14, 6-methyl-4-[(4-methyl-1H-indol-5-yl)amino]-5-{4-[2-(4-methylpiperazin-1-yl)ethoxy]phenyl}nicotinonitrile]"
,218 to 220,2.7,"Cc1ncc(C#N)c(Nc2ccc3[nH]ccc3c2C)c1-c1cc2cc(CN3CCN(C)CC3)ccc2o1 [Example 16, 6-methyl-4-[(4-methyl-1H-indol-5-yl)amino]-5-{5-[(4-methylpiperazin-1-yl)methyl]-1-benzofuran-2-yl}nicotinonitrile]"
